# In patent publication US8710095B2, “Drugs for prophylaxis or mitigation of taxane-induced neurotoxicity” (Bionumerik Pharmaceuticals, Inc., priority 2002, dated 2014):
# “Also recorded” adds a separate entry of the source.
# Assays:
# [1] = tested on: patients with advanced Non-Small Cell Lung Cancer (NSCLC); assay: Phase I study in Japan: 2,2′-dithiobis ethane sulfonate with paclitaxel and cisplatin, incidence of neurotoxicity; assay type: in vivo, human; settings: Japan (NSCLC) (n = 19), all doses 4.1 to 41.0 g/m^2
# Procedure: In the Phase I study in Japan, patients received the following treatment regimen every 3 weeks: a single dose of paclitaxel (175 mg/m^2) administered intravenously over 3 hours, pre-cisplatin saline hydration for 1 hour, immediately followed by a single dose of 2,2′-dithiobis ethane sulfonate (4.1, 8.2, 12.3, 18.4, 27.6 and 41.0 g/m^2, depending on cohort assignment) administered intravenously over 30 minutes, a single dose of cisplatin (75 mg/m^2) administered intravenously over 1 hour and subsequently post-cisplatin saline hydration for 1.5 hours.
# A total of 19 patients with advanced Non-Small Cell Lung Cancer (NSCLC) have been enrolled and treated in this study at four clinical sites in Japan. Each patient was to receive a total of three treatment cycles during this study. A total of 43 treatment courses of 2,2′-dithiobis ethane sulfonate with chemotherapy were given to 19 patients giving an average of 2.3 treatment cycles per patient. A total of 11 patients (57.9%) completed all three treatment cycles while 8 patients (42.1%) discontinued therapy prior to completing the three treatment cycles.
# (§1) The number and percentage of patients who reported neurotoxicity in the Phase I studies compared with historical control data are summarized on the next page. Severity grades were measured according to NCI-CTC standards.
# [2] = tested on: patients in the Phase I studies (US & Japan); assay: US & Japan Phase I studies overall, incidence of neurotoxicity; assay type: in vivo, human
# Procedure: Human clinical trials have been conducted in the United States, Europe and Japan regarding the safety and efficacy of the agents that make up this invention. These trials are ongoing. The following is a summary of the results obtained from early-stage (Phase 1) trials in the United States and Japan.
# as §1
# Overall, peripheral neuropathy, such as numbness, paresthesia or tingling, was reported in 54.5% of patients (30 patients, all severities) in the Phase I studies. The majority of neurotoxicity events experienced was mild in severity where 38.2% of patients (21 patients) reported Grade 1 neurotoxicity.
# female Wistar rats = assay: Paclitaxel-induced abnormal thermoesthesia, latent period for pseudo pain reactions (hot water bath 45° C.); assay type: in vivo, rat
# Procedure: Paclitaxel was intravenously administered at a dose of 6 mg/kg once daily to female Wistar rats (8 rats per group) (the initial dosage date was defined as day 0). Treatment was repeated five times every other day.
# The efficacy of 2,2′-dithiobis ethane sulfonate on the abnormal thermoesthesia occurring in response to the paclitaxel therapy was assessed using, as an index, a latent period for pseudo pain reactions. […] Each pseudo pain reaction-related latent period was measured on the day before the initial paclitaxel dosage (day −1, pretreatment), and daily for three days from the next day after the final paclitaxel dosage (from days 9 to 11, post-treatment), i.e., totally four times.
# 2,2′-dithiobis ethane sulfonate was, dissolved in water for injection to make its concentration 200 mg/ml upon use and the 2,2′-dithiobis ethane sulfonate solution thus prepared was intravenously administered at the dose of 500 mg/kg or 1,000 mg/kg immediately before the paclitaxel administration.
# cancer patients = assay: Individual patient cases (Examples 2 to 7): BNP7787 with paclitaxel and cisplatin; assay type: in vivo, human; settings: for tumor response: with paclitaxel and cisplatin; for peripheral neurotoxicity: 3 cycles
# Procedure: A patient with adenocarcinoma of unknown origin presented with a pituitary mass and supraclavicular and mediastinal lymph nodes. They received the following treatment regimen every 3 weeks: a single dose of paclitaxel (175 mg/m^2) administered IV over 3 hours, pre-cisplatin saline hydration (500 mL 0.9% NaCl) for 1 hour, a single dose of BNP7787 (18.4 g/m^2) administered IV over 15 minutes, immediately followed by a single dose of cisplatin (75 mg/m^2) administered IV over 1 hour and subsequently post-cisplatin saline hydration (250 mL 0.9% NaCl) for 30 minutes. The patient received a total of six cycles of study treatment and experienced peripheral neuropathy (NCI-CTC Grade 2) during Cycles 4 through 6.
# A patient with adenocarcinoma of gastric origin received the following treatment regimen every 3 weeks: a single dose of paclitaxel (175 mg/m^2) administered IV over 3 hours, pre-cisplatin saline hydration (500 mL 0.9% NaCl) for 1 hour, a single dose of BNP7787 (18.4 g/m^2) administered IV over 15 minutes, immediately followed by a single dose of cisplatin (75 mg/m^2) administered IV over 1 hour and subsequently post-cisplatin saline hydration (250 mL 0.9% NaCl) for 30 minutes.
# A patient with adenocarcinoma of unknown origin presented with retroperitoneal and lung masses. They received the following treatment regimen every 3 weeks: a single dose of paclitaxel (175 mg/m^2) administered IV over 3 hours, pre-cisplatin saline hydration (250 mL 0.9% NaCl) for 30 minutes, a single dose of BNP7787 (18.4 g/m^2) administered IV over 15 minutes, immediately followed by a single dose of cisplatin (75 mg/m^2) administered IV over 1 hour and subsequently post-cisplatin saline hydration (250 mL 0.9% NaCl) for 30 minutes. The patient received a total of six cycles of study treatment and experienced Grade 1 numbness and tingling (peripheral neuropathy) beginning Day 2 of Cycle 1 which resolved on Day 5. The patient again experienced Grade 1 peripheral neuropathy during Cycle 4.
# (§2) A patient with adenocarcinoma of the lung received the following treatment regimen every 3 weeks: a single dose of paclitaxel (175 mg/m^2) administered IV over 3 hours, pre-cisplatin saline hydration for 1 hour, immediately followed by a single dose of BNP7787 (18.4 g/m^2) administered IV over 30 minutes, a single dose of cisplatin (75 mg/m^2) administered IV over 1 hour and subsequently post-cisplatin saline hydration for 1.5 hours.
# as §2, with “hours. The patient received a total of 3 cycles of study treatment and experienced Grade 1 peripheral neurotoxicity beginning on Day 6 of Cycle 3, which resolved on Day 20 of Cycle 3.” for “hours.”
# as §2, with “large cell carcinoma” for “adenocarcinoma”, “hours. The patient received a total of 3 cycles of study treatment and experienced Grade 1 peripheral neurotoxicity beginning on Day 5 of Cycle 2.” for “hours.”
# [3] = tested on: patients with advanced solid tumors; assay: Phase I study in the United States: 2,2′-dithiobis ethane sulfonate with paclitaxel and cisplatin, incidence of neurotoxicity; assay type: in vivo, human; settings: United States (n = 36), all doses 4.1 to 41.0 g/m^2
# Procedure: In the Phase I study in the United States, human patients in Stage I received the following treatment regimen every 3 weeks: a single dose of paclitaxel (175 mg/m^2) administered intravenously over 3 hours, pre-cisplatin saline hydration (1000 mL 0.9% NaCl) for 2 hours, followed immediately by a single dose of 2,2′-dithiobis ethane sulfonate (4.1, 8.2, 12.3, 18.4, 27.6 and 41.0 g/m^2, depending on cohort assignment) administered intravenously over 15 or 30 minutes, a single dose of cisplatin (75 mg/m^2) administered intravenously over 1 hour and subsequently post-cisplatin saline hydration (500 cc 0.9% NaCl) for 1 hour.
# A total of 36 patients (22 patients in Stage I and 14 patients in Stage II) with advanced solid tumors have been enrolled and treated in this study at two clinical sites in the United States. A total of 138 treatment courses of BNP7787 with chemotherapy were given to 36 patients giving an average number of 3.8 treatment cycles per patient. A total of 13 patients (36.1%) completed at least five treatment cycles while 5 patients (13.9%) completed at least seven treatment cycles.
# as §1
# [4] = Overall (US & Japan) (n = 55), all doses 4.1 to 41.0 g/m^2, with paclitaxel and cisplatin
# [5] = Phase I studies US & Japan, with paclitaxel and cisplatin
smiles,measurement,setting,value
"O=S(=O)([O-])CCSSCCS(=O)(=O)[O-].[Na+].[Na+] [2,2′-dithiobis ethane sulfonate]","Incidence of neurotoxicity, Neurotoxicity Grade (NCI-CTC) 1",[1],13 (68.4) Number (%) of Patients
same,"Incidence of neurotoxicity, Neurotoxicity Grade (NCI-CTC) 2",[1],1 (5.2) Number (%) of Patients
same,"Incidence of neurotoxicity, Neurotoxicity Grade (NCI-CTC) 3",[1],0 (0.0) Number (%) of Patients
same,"Incidence of neurotoxicity, Neurotoxicity Grade (NCI-CTC) 4",[1],0 (0.0) Number (%) of Patients
same,"Incidence of neurotoxicity, Neurotoxicity Grade (NCI-CTC) ≧2",[1],1 (5.2) Number (%) of Patients
same,"Incidence of neurotoxicity, Overall (all grades)",[1],14 (73.6) Number (%) of Patients
same,"Incidence of neurotoxicity, Neurotoxicity Grade (NCI-CTC) 1",[2]; [4],21 (38.2) Number (%) of Patients
same,"Incidence of neurotoxicity, Neurotoxicity Grade (NCI-CTC) 2",[2]; [4],9 (16.4) Number (%) of Patients
same,"Incidence of neurotoxicity, Neurotoxicity Grade (NCI-CTC) 3",[2]; [4],0 (0.0) Number (%) of Patients
same,"Incidence of neurotoxicity, Neurotoxicity Grade (NCI-CTC) 4",[2]; [4],0 (0.0) Number (%) of Patients
same,"Incidence of neurotoxicity, Neurotoxicity Grade (NCI-CTC) ≧2",[2]; [4],9 (16.4) Number (%) of Patients
same,"Incidence of neurotoxicity, Overall (all grades)",[2]; [4],30 (54.5) Number (%) of Patients
same,incidence of moderate to severe (≧Grade 2) neurotoxicity,[2]; [5],16.4%
same,"overall incidence of neurotoxicity (peripheral neuropathy, all severities), patients",[2]; [5],54.5%
same,patients who reported Grade 1 neurotoxicity,[2]; [5],38.2%
same,patients who reported Grade 2 peripheral neuropathy,[2]; [5],16.4%
same,Grade 3 or 4 neurotoxicity,"[2]; Phase I studies, including patients who received up to 9 cycles of chemotherapy",No patient experienced Grade 3 or 4 neurotoxicity
same,peripheral neuropathy as dose limiting toxicity,[2]; administered concurrently with paclitaxel and cisplatin chemotherapy,not a dose limiting toxicity
same,effect on incidence of neurotoxicity versus historical control,[2]; concurrent administration with cisplatin and paclitaxel chemotherapy,decreases the incidence of neurotoxicity
same,Inhibition Rate (of latent period elongation),"female Wistar rats; 500 mg/kg iv with paclitaxel 6 mg/kg, Day 9",(17.8) %
same,Inhibition Rate (of latent period elongation),"female Wistar rats; 500 mg/kg iv with paclitaxel 6 mg/kg, Day 10",(18.0) %
same,Inhibition Rate (of latent period elongation),"female Wistar rats; 500 mg/kg iv with paclitaxel 6 mg/kg, Day 11",(19.4) %
same,Inhibition Rate (of latent period elongation),"female Wistar rats; 1,000 mg/kg iv with paclitaxel 6 mg/kg, Day 9",(43.3) %
same,Inhibition Rate (of latent period elongation),"female Wistar rats; 1,000 mg/kg iv with paclitaxel 6 mg/kg, Day 10",(38.0) %
same,Inhibition Rate (of latent period elongation),"female Wistar rats; 1,000 mg/kg iv with paclitaxel 6 mg/kg, Day 11",(51.0) %
same,effect on elongation of the latent period,"female Wistar rats; 1000 mg/kg, day 9, p<0.05, Dunnet test",significant suppressing effects
same,effect on latent period,female Wistar rats; groups receiving 500 mg/kg or 1000 mg/kg in advance of paclitaxel,suppressing tendency as a whole
same,effect on paclitaxel-induced abnormal thermoesthesia,female Wistar rats; overall conclusion of Example 1,mitigates effectively
same,tumor response,"cancer patients; Example 2: after Cycle 2, confirmed after Cycles 4 and 6",complete response
same,peripheral neuropathy (NCI-CTC),"cancer patients; Example 2: person, adenocarcinoma of unknown origin, 18.4 g/m^2, six cycles, during Cycles 4 through 6",Grade 2
same,peripheral neuropathy,"cancer patients; Example 3: person, adenocarcinoma of gastric origin, 18.4 g/m^2, five cycles",no peripheral neuropathy
same,tumor response,"cancer patients; Example 3: stable Cycles 2 through 4, progression following Cycle 5, listed as BNP7787",stable disease; also recorded: progressive disease
same,tumor response,"cancer patients; Example 4: partial after Cycle 2, complete after Cycle 6, listed as BNP7787",partial response; also recorded: complete response
same,peripheral neuropathy (numbness and tingling),"cancer patients; Example 4: person, adenocarcinoma of unknown origin, 18.4 g/m^2, six cycles, Cycle 1 Day 2 to 5 and Cycle 4",Grade 1
same,tumor response,cancer patients; Example 5: after Cycles 2 and 3,partial response
same,peripheral neurotoxicity,"cancer patients; Example 5: person, adenocarcinoma of the lung, 18.4 g/m^2",no peripheral neurotoxicity
same,tumor response,cancer patients; Example 6: after Cycles 2 and 3,partial response
same,peripheral neurotoxicity,"cancer patients; Example 6: person, adenocarcinoma of the lung, 18.4 g/m^2, Day 6 to Day 20 of Cycle 3",Grade 1
same,peripheral neurotoxicity,"cancer patients; Example 7: person, large cell carcinoma of the lung, 18.4 g/m^2, beginning Day 5 of Cycle 2",Grade 1
same,tumor response,cancer patients; Example 7,stable disease
same,"Incidence of neurotoxicity, Neurotoxicity Grade (NCI-CTC) 1",[3],8 (22.2) Number (%) of Patients
same,"Incidence of neurotoxicity, Neurotoxicity Grade (NCI-CTC) 2",[3],8 (22.2) Number (%) of Patients
same,"Incidence of neurotoxicity, Neurotoxicity Grade (NCI-CTC) 3",[3],0 (0.0) Number (%) of Patients
same,"Incidence of neurotoxicity, Neurotoxicity Grade (NCI-CTC) 4",[3],0 (0.0) Number (%) of Patients
same,"Incidence of neurotoxicity, Neurotoxicity Grade (NCI-CTC) ≧2",[3],8 (22.2) Number (%) of Patients
same,"Incidence of neurotoxicity, Overall (all grades)",[3],16 (44.0) Number (%) of Patients
"CC(=O)O[C@H]1C(=O)[C@@]2(C)[C@H]([C@H](OC(=O)c3ccccc3)[C@]3(O)C[C@H](OC(=O)[C@H](O)[C@@H](NC(=O)c4ccccc4)c4ccccc4)C(C)=C1C3(C)C)[C@]1(OC(C)=O)CO[C@@H]1C[C@@H]2O [Paclitaxel, paclitaxel, reference compound]",latent period,"female Wistar rats; paclitaxel alone, day 9 post-treatment",18.9 ± 1.4 s
same,latent period,"female Wistar rats; paclitaxel alone, day 10 post-treatment",19.9 ± 2.2 s
same,latent period,"female Wistar rats; paclitaxel alone, day 11 post-treatment",19.4 ± 2.4 s
same,latent periods compared with control groups,"female Wistar rats; paclitaxel alone, p<0.01, student's t-test or Man-Whitney U-test",significantly elongated
same,latent period,"female Wistar rats; paclitaxel alone, prior to the initiation of paclitaxel administration (pretreatment)",9.4 ± 1.0 s
